Experimental findings from patent US20010044445A1, “AZOLE INHIBITORS OF CYTOKINE PRODUCTION” (priority 1999, published 2001) are described below.

Some results are limits rather than exact numbers.

For data set [1], the system named is Human peripheral blood mononuclear cells. Kind of data set: Human Concanavalin-A Proliferation Assay (Con HU Assay). The format is cell-based. Conditions: Homo sapiens, PBMC, concanavalin-A stimulated human PBMC; for IC50: tritiated thymidine; for inhibition at 1 µM / inhibition at 10 µM / inhibition at 100 µM: 72 h, 3 days, read-out: % Inhibition of proliferation (at concentrations of 1,10, or 100 μm); for inhibition at 1 µM: concentration 1 μm (in parentheses in the cell); for inhibition at 10 µM: concentration 10 μm (in parentheses in the cell); for inhibition at 100 µM: concentration 100 μm (in parentheses in the cell). In outline:
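Histopaque-isolated human PBMC (50,000/well) were pre-incubated 15 min with compounds, then stimulated with concanavalin-A at 2.5 μg/ml final for 3 days at 37 °C, 5% CO2. Proliferation measured by 6 h pulse with 0.5 μCi/well [3H]thymidine and beta counting.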

In turn, `N#Cc1cc(C(F)(F)F)nn1-c1ccc(NC(=O)c2ccncc2Cl)cc1` [Example 351, 3-chloro-N-(4-(5-cyano-3-(trifluoromethyl)-1H-pyrazol-1-yl)phenyl)isonicotinamide] yielded a melting point of 221 to 222 °C. The compound also yielded an IC50 in data set [1] of 309 nM.
`O=C(Cc1ccc(Cl)cc1)Nc1ccc(-n2nc(C(F)(F)F)cc2C(F)(F)F)cc1` [Example 169, N-[4-[3,5-bis(trifluoromethyl)-1H-pyrazol-1-yl]phenyl]-4-chlorobenzeneacetamide] yielded a melting point of 122 to 124 °C. For the same compound, in data set [1], the inhibition at 1 µM was 2%.
Consider `O=C(Nc1ccc(-n2nc(C(F)(F)F)cc2OC(F)F)cc1)c1ccncc1F` [Example 327, N-(4-(5-(difluoromethoxy)-3-(trifluoromethyl)-1H-pyrazol-1-yl)phenyl)-3-fluoroisonicotinamide], for which the melting point fell in the range of 135 to 136 °C. Half-maximal inhibition in data set [1] (IC50) required 82 nM.
The compound `O=C(Nc1ccc(-n2nc(C(F)(F)F)cc2C(F)(F)F)cc1)c1ccccc1Oc1ccccc1` [Example 57, N-[4-[3,5-bis(trifluoromethyl)-1H-pyrazol-1-yl]phenyl]-2-phenoxybenzamide] came in with a melting point of 108 to 109 °C. For the same compound, the inhibition at 1 µM in data set [1] is 5%.
The compound `O=C(Nc1ccc(-n2nc(C(F)(F)F)cc2C(F)(F)F)cc1)c1cccc(I)c1` [Example 25, N-[4-[3,5-bis(trifluoromethyl)-1H-pyrazol-1-yl]phenyl]-3-iodobenzamide] had a melting point of 192 to 193 °C. For the same compound, in data set [1], the inhibition at 10 µM amounted to 100% and the IC50 was found to be 396 nM.
`CC(=O)c1cc(C(F)(F)F)nn1-c1ccc(NC(=O)c2cccnc2F)cc1` [Example 315, N-(4-(5-acetyl-3-(trifluoromethyl)-1H-pyrazol-1-yl)phenyl)-2-fluoronicotinamide] registered a melting point of 188 to 189 °C. This compound also came in with an IC50 in data set [1] of 320 nM.
`CC(=O)c1ccc(C(=O)Nc2ccc(-n3nc(C(F)(F)F)cc3C(F)(F)F)cc2)cc1` [Example 119, 4-Acetyl-N-[4-[3,5-bis(trifluoromethyl)-1H-pyrazol-1-yl]phenyl]benzamide]: the melting point was 203 to 204 °C. For the same compound, in data set [1], the inhibition at 10 µM came to 100% and the IC50 was 572 nM.
Regarding `O=C(Nc1ccc(-n2nc(C(F)(F)F)cc2C(F)(F)F)cc1)c1cccc(O)c1` [Example 104, N-[4-[3,5-bis(trifluoromethyl)-1H-pyrazol-1-yl]phenyl]-3-hydroxybenzamide], the melting point fell in the range of 221 to 223 °C. Also, in data set [1], the inhibition at 100 µM came out at 99% and the IC50 stood at 394 nM.
The matching figures for `O=C(Nc1ccc(-n2nc(C(F)(F)F)cc2C(F)(F)F)cc1)c1ccc(Cl)nc1Cl` [Example 149, N-[4-[3,5-bis(trifluoromethyl)-1H-pyrazol-1-yl]phenyl]-2,6-dichloro-3-pyridinecarboxamide]: 115 to 117 °C, 100% and 336 nM.
`O=C(Nc1ccc(-n2nc(C(F)(F)F)cc2C(F)(F)F)cc1)c1ccc(F)c(C(F)(F)F)c1` [Example 195, N-[4-[3,5-bis(trifluoromethyl)-1H-pyrazol-1-yl]phenyl]-4-fluoro-3-(trifluoromethyl)benzamide] displayed a melting point of 142 to 144 °C. Besides, in data set [1], the inhibition at 1 µM was determined as 22%.
Turning to `O=C(Nc1ccc(-n2nc(C(F)(F)F)cc2Br)cc1)c1cccc(F)c1F` [Example 348, N-(4-(5-bromo-3-(trifluoromethyl)-1H-pyrazol-1-yl)phenyl)-2,3-difluorobenzamide], the melting point lay in the range of 109 to 112 °C. In data set [1], the IC50 turned out to be 114 nM.
The compound `Cc1ccc(C(=O)Nc2ccc(-n3nc(C(F)(F)F)cc3C(F)(F)F)cc2)c(Cl)n1` [Example 151, N-[4-[3,5-bis(trifluoromethyl)-1H-pyrazol-1-yl]phenyl]-2-chloro-6-methyl-3-pyridinecarboxamide] showed a melting point of 155 to 156 °C. Besides, in data set [1], the inhibition at 100 µM was 99% and the IC50 was 295 nM.
As to `O=C(Cc1ccc(Cl)cc1)Nc1cccc(-n2nc(C(F)(F)F)cc2C(F)(F)F)c1` [Example 197, N-[3-[3,5-bis(trifluoromethyl)-1H-pyrazol-1-yl]phenyl]-4-chlorobenzeneacetamide], the melting point fell in the range of 209 to 211 °C. In addition, the inhibition at 1 µM in data set [1] came to 1%.
For the compound `O=C(Nc1ccc(-n2nc(C(F)(F)F)cc2C(F)(F)F)cc1)c1ccc(Cl)cc1O` [Example 220, N-[4-[3,5-bis(trifluoromethyl)-1H-pyrazol-1-yl]phenyl]-4-chloro-2-hydroxybenzamide], the melting point was 200 to 202 °C. For the same compound, in data set [1], the inhibition at 10 µM is 100% and the IC50 worked out at 4230 nM.
Take `CC(=O)Oc1ccccc1C(=O)Nc1ccc(-n2nc(C(F)(F)F)cc2C(F)(F)F)cc1` [Example 76, 2-(Acetyloxy)-N-[4-[3,5-bis(trifluoromethyl)-1H-pyrazol-1-yl]phenyl]benzamide]: the melting point fell in the range of 159 to 161 °C. In data set [1], the inhibition at 100 µM worked out at 100% and 3170 nM corresponded to half-maximal inhibition (IC50).
Turning to `N#Cc1cccc(NC(=O)c2ccc(-n3nc(C(F)(F)F)cc3C(F)(F)F)cc2)c1` [Example 186, 4-[3,5-Bis(trifluoromethyl)-1H-pyrazol-1-yl]-N-(3-cyanophenyl)benzamide], the melting point was in the range of 195 to 196 °C. In addition, the inhibition at 1 µM in data set [1] amounted to 14%.
For `Nc1ccc(C(=O)Nc2ccc(-n3nc(C(F)(F)F)cc3C(F)(F)F)cc2)cc1` [Example 59, 4-Amino-N-[4-[3,5-bis(trifluoromethyl)-1H-pyrazol-1-yl]phenyl]benzamide] the same measures were greater than 240 °C and 54%.
Compound `O=C(Nc1ccc(-n2nc(C(F)(F)F)cc2C(F)(F)F)cc1)c1ccc(C(F)(F)F)cc1C(F)(F)F` [Example 183, N-[4-[3,5-bis(trifluoromethyl)-1H-pyrazol-1-yl]phenyl]-2,4-bis(trifluoromethyl)benzamide] gave a melting point of 200 to 201 °C. Besides, in data set [1], the inhibition at 10 µM worked out at 94% and half-maximal inhibition (IC50) was put at 542 nM.
`Cc1noc(C)c1C(=O)Nc1ccc(-n2ccc(C(F)(F)F)n2)cc1` [Example 287, 3,5-dimethyl-N-[4-[3-(trifluoromethyl)-1H-pyrazol-1-yl)phenyl]-4-isoxazolecarboxamide] showed a melting point of 177 to 178 °C. In addition, in data set [1], the inhibition at 1 µM worked out at 24%.
In turn, `COc1cc(C(F)(F)F)nn1-c1ccc(NC(=O)c2ccccc2F)cc1` [Example 313, 2-fluoro-N-(4-(5-methoxy-3-(trifluoromethyl)-1H-pyrazol-1-yl)phenyl)benzamide] showed a melting point of 167 to 168 °C. Half-maximal inhibition in data set [1] (IC50) was put at 66 nM.
In turn, `NC(=O)c1ccc(C(=O)Nc2ccc(-n3nc(C(F)(F)F)cc3C(F)(F)F)cc2)cc1` [Example 133, N-[4-[3,5-bis(trifluoromethyl)-1H-pyrazol-1-yl]phenyl]-1,4-benzenedicarboxamide] displayed a melting point of 290 to 291 °C. For the same compound, in data set [1], the inhibition at 10 µM stood at 97% and the half-inhibitory concentration (IC50) is 315 nM.
Regarding `N#Cc1cccc(C(=O)Nc2ccc(-n3nc(C(F)(F)F)cc3C(F)(F)F)nc2)c1` [Example 261, N-[2-[3,5-bis(trifluoromethyl)-1H-pyrazol-1-yl]-5-pyridinyl]-3-cyanobenzamide], the melting point was in the range of 206 to 208 °C. In addition, the inhibition at 1 µM in data set [1] was found to be 37%.
`CC1(C(=O)Nc2ccc(-n3nc(C(F)(F)F)cc3C(F)(F)F)cc2)C=CCCC1` (stereo not drawn) [Example 9, N-[4-[3,5-bis(trifluoromethyl)-1H-pyrazol-1-yl]phenyl]-1-methyl-2-cyclohexene-1-carboxamide] registered a melting point of 108 to 110 °C. In addition, in data set [1], the inhibition at 1 µM turned out to be 35%.
With `O=C(Nc1ccc(-n2nc(C(F)(F)F)cc2C(F)(F)F)cc1)C1=CCCC1` [Example 10, N-[4-[3,5-bis(trifluoromethyl)-1H-pyrazol-1-yl]phenyl]-1-cyclopentene-1-carboxamide], the melting point was 174 to 175 °C. For the same compound, in data set [1], the inhibition at 10 µM was 100% and 114 nM corresponded to half-maximal inhibition (IC50).
Consider `O=C(Nc1ccc(-n2nc(C(F)(F)F)cc2C(F)(F)F)cc1)C1CCCO1` (stereo not drawn) [Example 241, N-[4-[3,5-bis(trifluoromethyl)-1H-pyrazol-1-yl]phenyl]tetrahydro-2-furancarboxamide], for which the melting point was in the range of 113 to 116 °C. The inhibition at 1 µM in data set [1] came out at 10%.
With `O=C(Nc1ccc(-n2nc(C(F)(F)F)cc2C(F)(F)F)cc1)c1ccsc1` [Example 239, N-[4-[3,5-bis(trifluoromethyl)-1H-pyrazol-1-yl]phenyl]-3-thiophenecarboxamide], the melting point fell in the range of 239 to 240 °C. Further, in data set [1], the inhibition at 10 µM stood at 55%.
In the case of `O=C(Nc1ccccc1Cl)c1ccc(-n2nc(C(F)(F)F)cc2C(F)(F)F)cc1` [Example 185, 4-[3,5-Bis(trifluoromethyl)-1H-pyrazol-1-yl]-N-(2-chlorophenyl)benzamide], the melting point was 162 to 164 °C. In addition, the inhibition at 1 µM in data set [1] stood at 26%.
`O=C(Nc1ccc(-n2nc(C(F)(F)F)cc2OC(F)F)cc1)c1ccccc1Cl` [Example 353, 2-chloro-N-(4-(5-(difluoromethoxy)-3-(trifluoromethyl)-1H-pyrazol-1-yl)phenyl)benzamide]: the melting point fell in the range of 122 to 123 °C. Moreover, in data set [1], 174 nM corresponded to half-maximal inhibition (IC50).
